Where two headings read alike, the source gives them in different places.
Legend:
22RV1 cells = assay: Cell growth inhibition of 22RV1 cells (CellTiter-Glo); format: cell-based; conditions: for GI50: Homo sapiens, 22Rv1, 120 h, 5 days, CellTiter-Glo
Outline: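 22RV1 cells were plated in RPMI1640 with FBS (20% in one version, 10% in the other) and dosed next day at various concentrations from DMSO stocks. After 5 days at 37 °C, viability was measured by CellTiter-Glo luminescence.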

[1] = test system: Phospho-Rb (Ser807/811) in MCF7 cells; assay: Phospho-Rb expression inhibition in MCF7 cells quantified by in cell Western; format: cell-based, human; conditions: for IC50: Homo sapiens, MCF7, 24 h, in cell Western
Outline: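 MCF7 cells were seeded at 20,000/well, grown overnight, then treated 24 h at 37 °C with compound dilutions (0.1% DMSO from 1000× stocks). Fixed cells were co-stained for phospho-Rb Ser807/811 and total Rb. Near-infrared dual-channel in-cell Western imaging was the read-out.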

[2] = read-out: 22RV1 Cell Growh GI50
[3] = 24 hours, read-out: MCF7 pRb IC50

GI50 (22RV1 cells; [2]) | IC50 [1, 3] | GI50 (22RV1 cells; read-out: 22RVI, GI50) | IC50 ([1]; 24 h incubation, read-out: MCF7, pRb (Ser807/811), IC50) | SMILES | Potency in 22RV1 cell growth inhibition compared with the reference compound (22RV1 cells; versus PF-07220060) | Potency in p-Rb inhibition compared with the reference compound ([1]; versus PF-07220060)
450 to 3000 nM | 40 to 150 nM |  |  | Cc1c(C)n(C(C)C)c2cc(-c3nc(N[C@@H]4C[C@H]5CO[C@H](O5)[C@H]4O)ncc3Cl)ccc2c1=O [Compound 191, 7-(5-chloro-2-(((1S,3R,4S,5R)-4-hydroxy-6,8-dioxabicyclo[3.2.1]octan-3-yl)amino)pyrimidin-4-yl)-1-isopropyl-2,3-dimethylquinolin-4(1H)-one] |  | 
120 to 450 nM | 40 to 150 nM |  |  | COC(=O)N1CC[C@@H](c2nc3c(F)cc(-c4nc(N[C@@H]5C[C@H]6CO[C@H](O6)[C@H]5O)ncc4F)cc3n2C(C)C)C1 [Compound 265, methyl (R)-3-(4-fluoro-6-(5-fluoro-2-(((1S,3R,4S,5R)-4-hydroxy-6,8-dioxabicyclo[3.2.1]octan-3-yl)amino)pyrimidin-4-yl)-1-isopropyl-1H-benzo[d]imidazol-2-yl)pyrrolidine-1-carboxylate] |  | 
120 to 450 nM | 40 to 150 nM |  |  | Cc1c(CN2CCC2)n(C(C)C)c2cc(-c3nc(N[C@@H]4C[C@H]5CO[C@H](O5)[C@H]4O)ncc3F)ccc2c1=O [Compound 196, 2-(azetidin-1-ylmethyl)-7-(5-fluoro-2-(((1S,3R,4S,5R)-4-hydroxy-6,8-dioxabicyclo[3.2.1]octan-3-yl)amino)pyrimidin-4-yl)-1-isopropyl-3-methylquinolin-4(1H)-one] |  | 
120 to 450 nM | 40 to 150 nM |  |  | Cc1c(CN(C)C)n(C(C)C)c2cc(-c3nc(N[C@@H]4C[C@H]5CO[C@H](O5)[C@H]4O)ncc3F)ccc2c1=O [Compound 195, 2-((dimethylamino)methyl)-7-(5-fluoro-2-(((1S,3R,4S,5R)-4-hydroxy-6,8-dioxabicyclo [3.2.1]octan-3-yl)amino)pyrimidin-4-yl)-1-isopropyl-3-methylquinolin-4(1H)-one] |  | 
≤ 120 nM | ≤ 40 nM |  |  | CC(C)n1c([C@@H]2CCOC2)nc2c(F)cc(-c3nc(N[C@@H]4C[C@H]5CO[C@H](O5)[C@H]4O)ncc3Cl)cc21 [Compound 268, (1S,3R,4S,5R)-3-((5-chloro-4-(4-fluoro-1-isopropyl-2-((S)-tetrahydrofuran-3-yl)-1H-benzo[d]imidazol-6-yl)pyrimidin-2-yl)amino)-6,8-dioxabicyclo[3.2.1]octan-4-ol] |  | 
≤ 120 nM | ≤ 40 nM |  |  | Cc1c(C(C)(C)O)cnc2c(F)cc(-c3nc(N[C@@H]4C[C@H]5CO[C@H](O5)[C@H]4O)ncc3F)cc12 [Compound 256, (1S,3R,4S,5R)-3-((5-fluoro-4-(8-fluoro-3-(2-hydroxypropan-2-yl)-4-methylquinolin-6-yl)pyrimidin-2-yl)amino)-6,8-dioxabicyclo[3.2.1]octan-4-ol] |  | 
≤ 120 nM | ≤ 40 nM |  |  | Cc1c(C(C)(C)O)cnc2c(F)cc(-c3nc(N[C@@H]4C[C@H]5CO[C@H](O5)[C@H]4O)ncc3Cl)cc12 [Compound 257, (1S,3R,4S,5R)-3-((5-chloro-4-(8-fluoro-3-(2-hydroxypropan-2-yl)-4-methylquinolin-6-yl)pyrimidin-2-yl)amino)-6,8-dioxabicyclo[3.2.1]octan-4-ol] |  | 
≤ 120 nM | ≤ 40 nM |  |  | Cc1c(-c2nc(N[C@@H]3C[C@H]4CO[C@H](O4)[C@H]3O)ncc2Cl)sc2c(C(C)C)cn(C)c(=O)c12 [Compound 223, 2-(5-chloro-2-(((1S,3R,4S,5R)-4-hydroxy-6,8-dioxabicyclo[3.2.1]octan-3-yl)amino)pyrimidin-4-yl)-7-isopropyl-3,5-dimethylthieno[3,2-c]pyridin-4(5H)-one] |  | 
450 to 3000 nM | 150 to 1000 nM |  |  | CC(C)n1c(CN2CC[C@@H](F)C2)c(F)c(=O)c2ccc(-c3nc(N[C@@H]4C[C@H]5CO[C@H](O5)[C@H]4O)ncc3F)cc21 [Compound 202, 3-fluoro-7-(5-fluoro-2-(((1S,3R,4S,5R)-4-hydroxy-6,8-dioxabicyclo[3.2.1]octan-3-yl)amino)pyrimidin-4-yl)-2-(((R)-3-fluoropyrrolidin-1-yl)methyl)-1-isopropylquinolin-4(1H)-one] |  | 
≤ 120 nM | ≤ 40 nM |  |  | Cc1c(CN2[C@@H](C)COC[C@@H]2C)n(C(C)C)c2cc(-c3nc(N[C@@H]4C[C@H]5CO[C@H](O5)[C@H]4O)ncc3Cl)ccc2c1=O [Compound 206, 7-(5-chloro-2-(((1S,3R,4S,5R)-4-hydroxy-6,8-dioxabicyclo[3.2.1]octan-3-yl)amino)pyrimidin-4-yl)-2-(((3S,5S)-3,5-dimethylmorpholino)methyl)-1-isopropyl-3-methylquinolin-4(1H)-one] |  | 
120 to 450 nM | ≤ 40 nM |  |  | Cc1c(-c2nc(N[C@@H]3C[C@H]4CO[C@H](O4)[C@H]3O)ncc2F)sc2c(Cl)c(C(C)(C)O)cnc12 [Compound 276, (1S,3R,4S,5R)-3-((4-(7-chloro-6-(2-hydroxypropan-2-yl)-3-methylthieno[3,2-b]pyridin-2-yl)-5-fluoropyrimidin-2-yl)amino)-6,8-dioxabicyclo[3.2.1]octan-4-ol] |  | 

The remaining lines, values behind:

SMILES | GI50 (22RV1 cells; [2]) | IC50 [1, 3] | GI50 (22RV1 cells; read-out: 22RVI, GI50) | IC50 ([1]; 24 h incubation, read-out: MCF7, pRb (Ser807/811), IC50) | Potency in 22RV1 cell growth inhibition compared with the reference compound (22RV1 cells; versus PF-07220060) | Potency in p-Rb inhibition compared with the reference compound ([1]; versus PF-07220060)
CC(C)n1c(CN2[C@@H](C)COC[C@@H]2C)c(F)c(=O)c2ccc(-c3nc(N[C@@H]4C[C@H]5CO[C@H](O5)[C@H]4O)ncc3Cl)cc21 [Compound 201, 7-(5-chloro-2-(((1S,3R,4S,5R)-4-hydroxy-6,8-dioxabicyclo[3.2.1]octan-3-yl)amino)pyrimidin-4-yl)-2-(((3S,5S)-3,5-dimethylmorpholino)methyl)-3-fluoro-1-isopropylquinolin-4(1H)-one] | 120 to 450 nM | 40 to 150 nM |  |  |  | 
CC(C)(O)c1cnc2c(F)cc(-c3nc(N[C@@H]4C[C@H]5CO[C@H](O5)[C@H]4O)ncc3Cl)cc2c1Cl [Compound 252, (1S,3R,4S,5R)-3-((5-chloro-4-(4-chloro-8-fluoro-3-(2-hydroxypropan-2-yl)quinolin-6-yl)pyrimidin-2-yl)amino)-6,8-dioxabicyclo[3.2.1]octan-4-ol] | ≤ 120 nM | ≤ 40 nM |  |  |  | 
CC(C)(O)c1cnc2c(F)cc(-c3nc(N[C@@H]4C[C@H]5CO[C@H](O5)[C@H]4O)ncc3F)cc2c1Cl [Compound 255, (1S,3R,4S,5R)-3-((4-(4-chloro-8-fluoro-3-(2-hydroxypropan-2-yl)quinolin-6-yl)-5-fluoropyrimidin-2-yl)amino)-6,8-dioxabicyclo[3.2.1]octan-4-ol] | ≤ 120 nM | ≤ 40 nM |  |  |  | 
Cc1c(CN2[C@@H](C)COC[C@@H]2C)n(C(C)C)c2cc(-c3nc(N[C@@H]4C[C@H]5CO[C@H](O5)[C@H]4O)ncc3F)ccc2c1=O [Compound 199, 2-(((3S,5S)-3,5-dimethylmorpholino)methyl)-7-(5-fluoro-2-(((1S,3R,4S,5R)-4-hydroxy-6,8-dioxabicyclo[3.2.1]octan-3-yl)amino)pyrimidin-4-yl)-1-isopropyl-3-methylquinolin-4(1H)-one] | ≤ 120 nM | ≤ 40 nM |  |  |  | 
CC(C)n1c(CN2[C@@H](C)COC[C@@H]2C)cc(=O)c2ccc(-c3nc(N[C@@H]4C[C@H]5CO[C@H](O5)[C@H]4O)ncc3Cl)cc21 [Compound 205, 7-(5-chloro-2-(((1S,3R,4S,5R)-4-hydroxy-6,8-dioxabicyclo[3.2.1]octan-3-yl)amino)pyrimidin-4-yl)-2-(((3S,5S)-3,5-dimethylmorpholino)methyl)-1-isopropylquinolin-4(1H)-one] | 120 to 450 nM | 40 to 150 nM |  |  |  | 
CC(C)n1c(C(C)(C)O)nc2c(F)cc(-c3nc(N[C@@H]4C[C@H]5CO[C@H](O5)[C@H]4O)ncc3Cl)cc21 [Compound 1, (1S,3R,4S,5R)-3-((5-chloro-4-(4-fluoro-2-(2-hydroxypropan-2-yl)-1-isopropyl-1H-benzo[d]imidazol-6-yl)pyrimidin-2-yl)amino)-6,8-dioxabicyclo[3.2.1]octan-4-ol] | ≤ 120 nM | 40 to 150 nM | 144 nM | 40.4 nM | slightly higher potency | higher potency
CC(C)n1c(N2C(=O)OC[C@@H]2C)nc2c(F)cc(-c3nc(N[C@@H]4C[C@H]5CO[C@H](O5)[C@H]4O)ncc3Cl)cc21 [Compound 298, (S)-3-(6-(5-chloro-2-(((1S,3R,4S,5R)-4-hydroxy-6,8-dioxabicyclo[3.2.1]octan-3-yl)amino)pyrimidin-4-yl)-4-fluoro-1-isopropyl-1H-benzo[d]imidazol-2-yl)-4-methyloxazolidin-2-one] | 450 to 3000 nM | 150 to 1000 nM |  |  |  | 
CC(C)n1c(CN2[C@@H](C)COC[C@@H]2C)c(C(F)F)c(=O)c2ccc(-c3nc(N[C@@H]4C[C@H]5CO[C@H](O5)[C@H]4O)ncc3Cl)cc21 [Compound 204, 7-(5-chloro-2-(((1S,3R,4S,5R)-4-hydroxy-6,8-dioxabicyclo[3.2.1]octan-3-yl)amino)pyrimidin-4-yl)-3-(difluoromethyl)-2-(((3S,5S)-3,5-dimethylmorpholino)methyl)-1-isopropylquinolin-4(1H)-one] | 120 to 450 nM | 40 to 150 nM |  |  |  | 
CC(C)n1c([C@@H]2CC2(F)F)nc2c(F)cc(-c3nc(N[C@@H]4C[C@H]5CO[C@H](O5)[C@H]4O)ncc3Cl)cc21 [Compound 216, (1S,3R,4S,5R)-3-((5-chloro-4-(2-((S)-2,2-difluorocyclopropyl)-4-fluoro-1-isopropyl-1H-benzo[d]imidazol-6-yl)pyrimidin-2-yl)amino)-6,8-dioxabicyclo[3.2.1]octan-4-ol] | ≤ 120 nM | ≤ 40 nM |  |  |  | 
Cc1c(CN2CC(F)C2)n(C(C)C)c2cc(-c3nc(N[C@@H]4C[C@H]5CO[C@H](O5)[C@H]4O)ncc3F)ccc2c1=O [Compound 197, 7-(5-fluoro-2-(((1S,3R,4S,5R)-4-hydroxy-6,8-dioxabicyclo[3.2.1]octan-3-yl)amino)pyrimidin-4-yl)-2-((3-fluoroazetidin-1-yl)methyl)-1-isopropyl-3-methylquinolin-4(1H)-one] | 120 to 450 nM | 40 to 150 nM |  |  |  | 
